Here are results for two compounds from patent publication US4927937A, “Pharmacologically active ε-valerolactams” (Chinese Academy of Medical Science, priority 1986, dated 1990).

For experiment [1] the following is noted: animal tests, literature report; cited from earlier work.
For experiment [2], the system named is CCl4 intoxicated mice (SGPT). The experiment is described as follows: Hepatoprotective action: SGPT of CCl4 intoxicated mice. The format is in vivo, mouse (male Kunming strain). The following applies: 250 mg/kg × 2 orally at 8 h interval, 0.1% CCl4 10 ml/kg injected 24 h after second dose, 9 mice per group; P <0.01; control 1678 + 261. On the procedure: Male Kunming strain mice weighing 18-22 grams were used throughout the experiments. The compounds to be tested were suspended in 5% Tween 80 and given orally by gavage. The vehicle of 5% Tween 80 solution was administered to control mice via the same route. In in vitro experiments, the compounds were dissolved in dimethylformamide and added directly into the incubation mixture.
Mice were divided into several groups. The control group was administered the vehicle. The other groups were given two doses (250 mg/kg) of the compound at an interval of 8 h, respectively. 10 ml/kg of 0.1% CCl4 in vegetable oil was injected in 24 h after the second administration of the compound. The mice were fasted for 16 h and sacrificed by decapitation. SGPT and liver lipids were determined. A piece of liver was processed into sections for pathological observation.

Experiment [3] relates to male rats, retrograde amnesia under hypoxia. Put plainly: Retrograde amnesia (rat) under hypoxic conditions. The following applies: 100 mg/kg p.o., hypoxia 3.8% oxygen, 15 animals per group. Format: in vivo. On the procedure:
The apparatus (39 cm long, 21 cm high, and 21 cm wide) consists of two compartments, one made of translucent plastic (29 cm long) and the other one painted black (10 cm long) It has a bottom of spaced metal grids which are connected to a stimulating device delivered 1.6 mA for 20 s.
Both compartments are connected via a door which can be closed.
Male rats (100-120 g body weight) will be placed individually in the large compartment and allowed to explore both compartments for 3 min.
Thereafter the animals are placed in the small (dark) compartment, the connecting door is closed and the foot shock is delivered. After that the animals are put in an air-tight cage which is prefused by a gas mixture containing 3.8% oxygen and 96.2% nitrogen.
24 hours later the rats are placed again in the bright compartment. The observation time is 3 min.
One experiment is performed in three groups of 15 animals each:
Group A: control group, not exposed to hypoxia
Group B: control group, receiving hypoxia after first training
Group C: treated animals, receiving hypoxia after first training.
Evaluation: the times the animals need to enter the dark compartment are measured in seconds. […]
The time difference between the control group B and the treated group C is calculated in percent (C-B=X%). X is considered to be measured for the potency of the antiamnestic effect of the substance tested.

Consider `C=CC(C)(C)c1cc2cc3c(cc2oc1=O)OC1(C)CCC(C(C)(C)O)OC1C3` (stereo not drawn) [Clausmarin A], for which, in experiment [1], the spasmolytic activity result is recorded as “showed spasmolytic activity”.
Regarding `CN1C=C(c2ccccc2)C(c2ccccc2)C(O)C1=O` (stereo not drawn) [Example 1], in experiment [2], the “SGPT units % X ± SE” value is 739 + 196 units %. Moreover, in experiment [3], the “X (antiamnestic effect, C-B in percent of A-B)” value is 11%.
